In US5556858A, “Cis-2-[(4-heteroaryl-1-piperazinyl)alkyl] hexahydro-1H-isoindole-1,3 (2H)-diones and related compounds and their therapeutic utility” (Hoechst-Roussel Pharmaceuticals, Inc., priority 1995, dated 1996) one finds ED50 data, which are given here for seven compounds.

Structures can show the parent of a compound that is named as a salt. Where two headings read alike, the source gives them in different places.

The ED50 is the dose at which the effect has come halfway, by size or by number of responders.

Assay [1] concerns phenylquinone induced writhing. Description: phenyl p-quinone writhing assay (analgesia). The assay is classed as in vivo, mice. Conditions: Mus musculus, sc, dose effecting approximately 50% inhibition of writhing. The text has this: Some of the compounds of the present invention are also useful as analgetics due to their ability to alleviate pain in mammals. […] Exptl. Biol. Med., 95:729 (1957). Thus, for instance, the subcutaneous dose effecting an approximately 50% inhibition of writhing (ED50) in mice produced in this assay is as shown in Table 2.
A general note: In writhing tests, fewer writhes than in controls are read as antinociception.

The next assay relates to apomorphine climbing. Put plainly: climbing mice assay (antipsychotic activity). The assay is classed as in vivo, mice (CK-1 male). Particulars: Mus musculus; ip; apomorphine 1.5 mg/kg subcutaneously; climbing score vs control. As to the method: Subject […] male mice (23-27 grams) are group-housed under standard laboratory conditions. The mice are individually placed in wire mesh stick cages (4"×10") and are allowed one hour for adaption and exploration of the new environment.
For evaluation of climbing, 3 readings are taken at 10, 20, and 30 minutes-after apomorphine administration according to the following scale: […]
Mice consistently climbing before the injection of apomorphine are discarded.
With full-developed apomorphine climbing, the animals are hanging on to the cage walls, rather motionless, over long periods of time. By contrast, climbs due to mere motor stimulation usually only last a few seconds.
The climbing scores are individually totaled (maximal score: 6 per mouse over 3 readings) and the total score of the control group (vehicle intraperitoneally-apomorphine subcutaneously) is set to 100%.

Where [2] appears, read: read-out: INHIBITION OF PHE[…] WRITHING ED50.

For `CCC(=O)O[C@](Cc1ccccc1)(c1ccccc1)[C@H](C)CN(C)C` [Propoxyphene, reference compound], the ED50 in assay [1] (setting [2]) was 3.9 mg/kg. With `COc1cc(C(C)=O)ccc1OCCCN1CCN(c2n[nH]c3ccccc23)CC1` [1-[4-[3-[4-(1H-indazol-3-yl)-1-piperazinyl]propoxy]-3-methoxyphenyl]ethanone], the median effective dose (ED50) in assay [1] amounted to 0.06 mg/kg; with apomorphine climbing it was 0.98 mg/kg. With `CC(C)=CCN1CCC2(C)c3cc(O)ccc3CC1C2C` (stereo not shown) [Pentazocine, reference compound], in assay [1] (setting [2]), the ED50 amounted to 1.3 mg/kg.

Take `COc1cc(C(C)=O)ccc1OCCCN1CCC(c2noc3cc(F)ccc23)CC1` [1-[4-[3-[4-(6-fluoro-1,2-benzisoxazol-3-yl)-1-piperidinyl]propoxy]-3-methoxyphenyl]ethanone]: the ED50 in assay [1] worked out at 0.03 mg/kg; in the assay with apomorphine climbing it was 0.095 mg/kg. For the compound `COc1cc(C(C)=O)ccc1OCCCN1CCC(c2noc3ccccc23)CC1` [1-[4-[3-[4-(1,2-benzisoxazol-3-yl)-1-piperidinyl]propoxy]-3-methoxyphenyl]ethanone], the values for the ED50 (in assay [1]; in the assay with apomorphine climbing) were 0.17 mg/kg and 0.67 mg/kg, respectively.

In the assay with apomorphine climbing, `COc1cccc2c1C(=O)N(CCN1CCC(c3noc4cc(F)ccc34)CC1)C2=O` [N-[2-[4-(6-fluoro-1,2-benzisoxazol-3-yl)-1-piperidinyl]ethyl]-3-methoxyphthalimide] showed an ED50 of 0.16 mg/kg. On the same count and under the same terms, in the case of `Cc1ccc2c(c1)C(=O)N(CCN1CCN(c3n[nH]c4cc(F)ccc34)CC1)C2=O` [N-[2-[4-(6-Fluoro-1H-indazol-3-yl)-1-piperazinyl]ethyl]-4-methylphthalimidedihydrochloride] it was 0.37 mg/kg.
